The source made the active and inactive calls.
How the values were obtained:
[1] = inhibitors of firefly luciferase expression or activity, dose response, H4 neuroglioma cells, luminescence (AID 1990); format: functional, cell-based
[2] = inhibitors of SNCA 5'UTR-driven reporter translation, confirmation, H4 neuroglioma cells, luminescence (AID 1988); format: functional, cell-based
[3] = Luminescence Cell-Based Dose Response HTS to Identify Inhibitors of 5'UTR Stem-Loop Driven Prion Protein mRNA Translation in H4 Neuroglioblastoma Cells. [Related pubchem assays: 1827 (Project Summary), 1813 (Primary HTS)]; format: functional
[4] = biological target: Type-1 angiotensin II receptor (Homo sapiens, UniProt P30556); assay: AT1 receptor agonists, dose response, selectivity assay for APJ receptor agonist project, cell-based, uHTS hits (AID 488865); format: functional;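 further: beta-arrestin recruitment to AT1 measured by enzyme fragment complementation luminescence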
Sequence of Type-1 angiotensin II receptor (P30556 whole entry, the tested form may be a part): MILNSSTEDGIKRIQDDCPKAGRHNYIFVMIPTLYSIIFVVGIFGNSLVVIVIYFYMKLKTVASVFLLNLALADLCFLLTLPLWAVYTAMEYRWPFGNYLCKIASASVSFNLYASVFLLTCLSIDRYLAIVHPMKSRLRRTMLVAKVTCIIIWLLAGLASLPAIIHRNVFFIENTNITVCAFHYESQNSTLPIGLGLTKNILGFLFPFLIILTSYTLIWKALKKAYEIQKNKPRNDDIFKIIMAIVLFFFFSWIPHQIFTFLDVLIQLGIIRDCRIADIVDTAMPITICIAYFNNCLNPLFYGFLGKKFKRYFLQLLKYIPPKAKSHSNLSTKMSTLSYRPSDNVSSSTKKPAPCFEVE

[5] = biological target: Glyceraldehyde-3-phosphate dehydrogenase (Homo sapiens, UniProt P04406)
Sequence of Glyceraldehyde-3-phosphate dehydrogenase (P04406 whole entry): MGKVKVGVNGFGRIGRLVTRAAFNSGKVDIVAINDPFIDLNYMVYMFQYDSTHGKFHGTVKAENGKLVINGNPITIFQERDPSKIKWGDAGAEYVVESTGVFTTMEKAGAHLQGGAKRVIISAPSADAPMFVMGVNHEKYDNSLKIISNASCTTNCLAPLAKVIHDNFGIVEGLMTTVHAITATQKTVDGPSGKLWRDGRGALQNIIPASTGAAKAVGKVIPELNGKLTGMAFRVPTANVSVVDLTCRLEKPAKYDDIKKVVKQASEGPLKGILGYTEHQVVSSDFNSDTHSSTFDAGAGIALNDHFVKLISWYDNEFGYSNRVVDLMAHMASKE

[6] = biological target: T1, Alkaline phosphatase, tissue-nonspecific isozyme (Homo sapiens, UniProt P05186); assay: human TNAP enzyme inhibitors, SAR follow-up, biochemical, luminescent, dose response (AID 1056)
T1 sequence (P05186 whole entry): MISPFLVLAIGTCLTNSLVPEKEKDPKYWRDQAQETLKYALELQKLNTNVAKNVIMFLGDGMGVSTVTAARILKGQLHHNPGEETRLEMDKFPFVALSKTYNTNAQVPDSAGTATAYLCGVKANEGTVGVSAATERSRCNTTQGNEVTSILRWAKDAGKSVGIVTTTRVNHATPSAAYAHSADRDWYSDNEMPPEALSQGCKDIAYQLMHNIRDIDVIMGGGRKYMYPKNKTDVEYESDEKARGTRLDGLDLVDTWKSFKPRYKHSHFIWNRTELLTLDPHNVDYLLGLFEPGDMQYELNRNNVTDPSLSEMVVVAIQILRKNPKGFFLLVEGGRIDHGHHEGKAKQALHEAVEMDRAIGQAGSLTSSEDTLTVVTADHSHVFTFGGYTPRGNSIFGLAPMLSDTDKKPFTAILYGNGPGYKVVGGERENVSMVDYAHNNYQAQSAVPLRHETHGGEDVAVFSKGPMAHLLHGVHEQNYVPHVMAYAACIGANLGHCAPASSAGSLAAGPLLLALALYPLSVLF

[7] = biological target: Alkaline phosphatase, placental type (Homo sapiens, UniProt P05187); assay: PLAP enzyme inhibitors, confirmation, biochemical, luminescence (AID 1512); format: functional
Sequence of Alkaline phosphatase, placental type (P05187 whole entry): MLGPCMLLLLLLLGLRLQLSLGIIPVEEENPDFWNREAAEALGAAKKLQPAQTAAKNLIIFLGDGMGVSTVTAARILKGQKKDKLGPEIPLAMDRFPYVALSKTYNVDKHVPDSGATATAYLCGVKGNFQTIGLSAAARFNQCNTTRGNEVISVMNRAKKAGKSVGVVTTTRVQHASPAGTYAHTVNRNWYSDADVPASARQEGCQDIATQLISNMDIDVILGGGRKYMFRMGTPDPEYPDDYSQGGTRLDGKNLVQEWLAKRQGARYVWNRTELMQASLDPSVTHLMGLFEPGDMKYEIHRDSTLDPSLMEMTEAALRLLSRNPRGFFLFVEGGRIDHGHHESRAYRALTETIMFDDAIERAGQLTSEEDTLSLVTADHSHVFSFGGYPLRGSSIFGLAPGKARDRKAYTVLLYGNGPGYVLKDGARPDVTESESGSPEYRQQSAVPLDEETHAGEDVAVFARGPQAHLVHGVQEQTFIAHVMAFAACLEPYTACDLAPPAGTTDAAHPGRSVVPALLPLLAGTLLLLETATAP

[8] = biological target: DNA damage-inducible transcript 3 protein (Mus musculus, UniProt P35639); format: functional, Cricetulus griseus
Sequence of DNA damage-inducible transcript 3 protein (P35639 whole entry): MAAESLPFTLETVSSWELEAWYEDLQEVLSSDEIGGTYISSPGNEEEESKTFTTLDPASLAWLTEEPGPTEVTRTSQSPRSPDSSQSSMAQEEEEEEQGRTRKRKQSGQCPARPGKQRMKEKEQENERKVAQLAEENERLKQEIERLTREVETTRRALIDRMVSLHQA

X-box-binding protein 1 = X-box-binding protein 1 (Homo sapiens, UniProt P17861); format: functional, Cricetulus griseus;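 further: confirmatory dose-response counter-screen serving a CHOP assay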
Sequence of X-box-binding protein 1 (P17861 whole entry): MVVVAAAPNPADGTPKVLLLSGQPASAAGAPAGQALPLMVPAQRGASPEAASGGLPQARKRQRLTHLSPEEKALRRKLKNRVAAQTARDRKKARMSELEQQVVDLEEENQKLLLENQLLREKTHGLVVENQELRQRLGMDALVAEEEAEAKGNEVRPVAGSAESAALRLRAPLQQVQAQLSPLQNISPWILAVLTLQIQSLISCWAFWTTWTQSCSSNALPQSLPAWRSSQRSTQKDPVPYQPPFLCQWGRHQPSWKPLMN

[9] = Luminescence Cell-Based Dose Retest to Confirm Inhibitors of Cancer Stem Cells. [Related pubchem assays (depositor defined):AID2717, AID2721]; format: functional; details: Homo sapiens
Perilipin-1/ABHD5 = Perilipin-1/ABHD5 (Homo sapiens, UniProt O60240+Q8WTS1); assay: Luminescence-based biochemical high throughput dose response assay for inhibitors of the interaction of the lipase co-activator protein, abhydrolase domain containing 5 (ABHD5) with perilipin-1 (PLIN1) (2K validation set). [Related pubchem assays (depositor defined):AID493027, AID493057]
Sequence of Perilipin-1/ABHD5 (Q8WTS1 whole entry, the tested form may be a part): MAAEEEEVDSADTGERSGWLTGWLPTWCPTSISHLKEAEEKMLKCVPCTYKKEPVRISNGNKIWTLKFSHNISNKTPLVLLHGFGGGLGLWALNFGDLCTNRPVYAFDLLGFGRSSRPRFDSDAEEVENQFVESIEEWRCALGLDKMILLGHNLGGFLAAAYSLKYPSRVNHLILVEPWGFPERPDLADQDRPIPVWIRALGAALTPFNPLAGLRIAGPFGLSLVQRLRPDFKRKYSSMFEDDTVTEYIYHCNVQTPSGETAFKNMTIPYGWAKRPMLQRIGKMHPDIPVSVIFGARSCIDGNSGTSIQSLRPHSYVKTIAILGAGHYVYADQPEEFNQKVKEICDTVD
Sequence of Perilipin-1/ABHD5 (O60240 whole entry, the tested form may be a part): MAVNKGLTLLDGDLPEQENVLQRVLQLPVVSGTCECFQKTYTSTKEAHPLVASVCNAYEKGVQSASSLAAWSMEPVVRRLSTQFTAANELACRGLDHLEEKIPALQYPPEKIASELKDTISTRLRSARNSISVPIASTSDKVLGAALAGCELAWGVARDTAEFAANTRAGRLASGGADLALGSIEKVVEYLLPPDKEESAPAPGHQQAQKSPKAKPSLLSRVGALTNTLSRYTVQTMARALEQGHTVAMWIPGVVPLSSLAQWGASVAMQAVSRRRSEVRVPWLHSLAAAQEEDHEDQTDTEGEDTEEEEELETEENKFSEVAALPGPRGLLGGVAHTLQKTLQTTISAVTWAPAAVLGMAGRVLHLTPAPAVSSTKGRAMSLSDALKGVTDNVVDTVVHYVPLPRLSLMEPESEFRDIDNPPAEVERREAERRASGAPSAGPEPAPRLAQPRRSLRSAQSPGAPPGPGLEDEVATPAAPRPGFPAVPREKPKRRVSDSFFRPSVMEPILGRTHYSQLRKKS

[10] = biological target: 1-acylglycerol-3-phosphate O-acyltransferase ABHD5/Perilipin-5 (Homo sapiens, UniProt Q00G26+Q8WTS1); assay: Luminescence-based biochemical high throughput dose response assay for inhibitors of the interaction of the lipase co-activator protein, abhydrolase domain containing 5 (ABHD5) with perilipin-5 (MLDP; PLIN5) (2K validation set). [Related pubchem assays (depositor defined):AID493035, AID493241]
Sequence of 1-acylglycerol-3-phosphate O-acyltransferase ABHD5/Perilipin-5 (Q00G26 whole entry, the tested form may be a part): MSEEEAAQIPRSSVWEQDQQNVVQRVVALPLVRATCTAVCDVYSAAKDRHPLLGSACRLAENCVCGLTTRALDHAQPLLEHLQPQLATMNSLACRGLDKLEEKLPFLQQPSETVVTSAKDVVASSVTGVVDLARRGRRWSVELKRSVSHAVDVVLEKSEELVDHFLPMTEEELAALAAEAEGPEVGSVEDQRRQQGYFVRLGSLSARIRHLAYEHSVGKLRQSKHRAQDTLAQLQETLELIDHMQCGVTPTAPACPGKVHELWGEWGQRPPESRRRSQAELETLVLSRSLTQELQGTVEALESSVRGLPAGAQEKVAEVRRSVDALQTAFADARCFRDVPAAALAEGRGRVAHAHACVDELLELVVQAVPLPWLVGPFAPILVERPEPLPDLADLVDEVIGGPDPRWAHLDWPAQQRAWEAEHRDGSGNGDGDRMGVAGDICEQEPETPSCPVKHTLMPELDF
Sequence of 1-acylglycerol-3-phosphate O-acyltransferase ABHD5/Perilipin-5 (Q8WTS1 whole entry, the tested form may be a part): as the sequence (Q8WTS1 whole entry, the tested form may be a part) above

Cannabinoid receptor 1 [11] = biological target: T2, Cannabinoid receptor 1 (Homo sapiens, UniProt P21554); assay: SAR analysis of agonists of the Cannabinoid Receptor 1 using an Image-Based Assay - Set 2. [Related pubchem assays (depositor defined):AID2013, AID2026]; format: functional
T2 sequence (P21554 whole entry): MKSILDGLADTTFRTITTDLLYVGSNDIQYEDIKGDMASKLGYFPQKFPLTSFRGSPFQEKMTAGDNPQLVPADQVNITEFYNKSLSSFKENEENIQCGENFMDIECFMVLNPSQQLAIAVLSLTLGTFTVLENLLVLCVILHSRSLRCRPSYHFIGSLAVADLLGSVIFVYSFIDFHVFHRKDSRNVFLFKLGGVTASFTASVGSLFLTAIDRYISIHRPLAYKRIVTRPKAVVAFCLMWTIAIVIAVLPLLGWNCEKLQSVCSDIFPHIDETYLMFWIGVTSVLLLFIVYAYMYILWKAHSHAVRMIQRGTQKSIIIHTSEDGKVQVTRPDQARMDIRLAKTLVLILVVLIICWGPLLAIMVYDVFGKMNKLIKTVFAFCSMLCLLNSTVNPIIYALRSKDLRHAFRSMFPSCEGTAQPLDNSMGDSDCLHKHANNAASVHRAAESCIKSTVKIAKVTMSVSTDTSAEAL

[12] = biological target: T3, G-protein coupled receptor 35 (Homo sapiens, UniProt Q9HC97); assay: SAR analysis of Antagonists of the GPR35 Receptor using an Image-Based Assay - Set 3. [Related pubchem assays (depositor defined):AID2013, AID2026]; format: functional
T3 sequence (Q9HC97 whole entry): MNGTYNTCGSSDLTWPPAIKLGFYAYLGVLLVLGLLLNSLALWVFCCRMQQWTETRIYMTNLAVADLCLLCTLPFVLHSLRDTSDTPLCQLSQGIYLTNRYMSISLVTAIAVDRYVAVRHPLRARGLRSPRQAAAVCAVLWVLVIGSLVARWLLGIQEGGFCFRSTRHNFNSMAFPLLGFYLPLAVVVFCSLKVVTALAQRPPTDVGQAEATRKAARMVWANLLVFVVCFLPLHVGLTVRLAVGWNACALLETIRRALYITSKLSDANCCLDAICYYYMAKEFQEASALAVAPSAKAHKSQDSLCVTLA

Cannabinoid receptor 1 [13] = biological target: T2, Cannabinoid receptor 1; assay: SAR analysis of antagonists of the Cannabinoid Receptor 1 using an Image-Based Assay - Set 2. [Related pubchem assays (depositor defined):AID2013, AID2026]; format: functional
[14] = biological target: T4, G-protein coupled receptor 55 (Homo sapiens, UniProt Q9Y2T6); assay: GPR55 antagonists blocking LPI-driven arrestin recruitment, primary screen, imaging, U2OS, beta-arrestin-GFP, LPI agonist (AID 2013); format: functional;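 further: antagonist potency measured as reduced agonist-driven arrestin aggregation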
T4 sequence (Q9Y2T6 whole entry): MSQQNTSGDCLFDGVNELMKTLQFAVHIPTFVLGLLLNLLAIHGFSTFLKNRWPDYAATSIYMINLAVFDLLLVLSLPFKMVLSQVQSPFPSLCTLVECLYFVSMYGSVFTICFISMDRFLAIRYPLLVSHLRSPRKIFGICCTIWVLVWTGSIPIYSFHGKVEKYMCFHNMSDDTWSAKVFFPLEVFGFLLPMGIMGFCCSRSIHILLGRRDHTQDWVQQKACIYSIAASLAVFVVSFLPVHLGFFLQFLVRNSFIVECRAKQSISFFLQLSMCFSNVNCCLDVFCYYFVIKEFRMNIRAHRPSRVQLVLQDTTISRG

Cannabinoid receptor 2 [15] = biological target: T5, Cannabinoid receptor 2 (Homo sapiens, UniProt P34972); assay: SAR analysis of antagonists of the Cannabinoid Receptor 2 using an Image-Based Assay. [Related pubchem assays (depositor defined):AID2013, AID2026]; format: functional
T5 sequence (P34972 whole entry): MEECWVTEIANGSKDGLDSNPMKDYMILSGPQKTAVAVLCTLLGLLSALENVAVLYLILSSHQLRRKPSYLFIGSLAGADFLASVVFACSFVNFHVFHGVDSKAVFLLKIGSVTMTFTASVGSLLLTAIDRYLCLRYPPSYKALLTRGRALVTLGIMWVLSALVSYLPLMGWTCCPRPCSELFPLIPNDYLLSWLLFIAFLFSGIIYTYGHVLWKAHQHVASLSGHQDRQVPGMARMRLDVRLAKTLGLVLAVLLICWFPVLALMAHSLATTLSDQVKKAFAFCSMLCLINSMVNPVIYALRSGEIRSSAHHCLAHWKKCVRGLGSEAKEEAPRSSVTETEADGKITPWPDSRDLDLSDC

Cannabinoid receptor 2 [16] = biological target: T5, Cannabinoid receptor 2; assay: SAR analysis of agonists of the Cannabinoid Receptor 2 using an Image-Based Assay. [Related pubchem assays (depositor defined):AID2013, AID2026]; format: functional
[17] = biological target: T3, G-protein coupled receptor 35; assay: SAR analysis of Agonists of the GPR35 Receptor using an Image-Based Assay - Set 2. [Related pubchem assays (depositor defined):AID2013, AID2026]; format: functional
[18] = biological target: T4, G-protein coupled receptor 55; assay: GPR55 antagonist potency of analogs, SAR follow-up, imaging, U2OS, beta-arrestin-GFP, LPI agonist, set 2 (AID 2820); format: functional
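Wherever AC50 is given: cells exposed to compound for roughly 70 hours or longer before luminescence read.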

Compound: CCc1nnc(NC(=O)CSc2nc3cccnc3n2C2CCCCC2)s1
- EC50 [1]: 23.2 µM (active)
- EC50 [2]: 13.3 µM (active)
- EC50 [3]: > 120 µM (not active)
- EC50 [4]: > 100 µM (inactive)

Compound: CCN(CC)C(=O)CSc1nnc(-c2ccccc2OC)[nH]1
- IC50 [5]: > 100 µM (not active)
- IC50 [6]: 17.6 µM (active)
- IC50 [7]: > 100 µM (inactive)

Compound: Oc1ccccc1-n1c(-c2ccccc2)ccc1-c1ccccc1
- Absolute IC50 (CHOP) [8]: 10 µM
- Absolute IC50 (XBP1) (X-box-binding protein 1): 10 µM
- AC50 [9]: 4.28 µM (active)

Compound: COc1cccc(/C=C/C(=O)c2c(O)cc(C)oc2=O)c1O
- IC50 (Perilipin-1/ABHD5): 6.79 µM (active)
- IC50 [10]: 9.96 µM (active)

Compound: Cc1n[nH]c(-c2ccc(O)c(C)c2O)c1Oc1ccccc1
- EC50 (Cannabinoid receptor 1 [11]): > 32 µM (inactive)
- IC50 [12]: > 32 µM (inactive)
- IC50 (Cannabinoid receptor 1 [13]): 11.7 µM (inactive)
- IC50 [14]: 1.9 µM (active)
- IC50 (Cannabinoid receptor 2 [15]): > 32 µM (inactive)
- EC50 (Cannabinoid receptor 2 [16]): > 32 µM (inactive)
- EC50 [17]: > 32 µM (inactive)
- IC50 [18]: 0.854 µM (active)

Source: ChEMBL document CHEMBL1201862, “PubChem BioAssay data set” (2004)
